The record followed here is ChEMBL document CHEMBL4823243, “Synergistic induction of apoptosis in resistant head and neck carcinoma and leukemia by alkoxyamide-based histone deacetylase inhibitors” (Eur J Med Chem, 2021).

In assay [1] the test system is CAL-27. The assay is described as follows: Induction of apoptosis in cisplatin resistant human CAL-27 cells assessed as caspase 7 activation at 0.3 uM pretreated for 24 hrs followed by cisplatin treatment and further incubated for 18 hrs by Caspase3/7 detection reagent based assay. It is filed as functional, cell-based. The conditions noted are these: time 42.0 hrs.

Assay [2] addresses T1, Histone deacetylase (Homo sapiens) (UniProt Q13547+O15379+Q9UBN7+Q92769+Q9UQL6+Q8WUI4+Q9BY41+Q96DB2+P56524+Q9UKV0+Q969S8). The assay is described as follows: Inhibition of HDAC in human CAL-27 cells assessed as combination index at 0.1 uM measured in presence of 5 uM cDDP by MTT-based Chou-Talalay method. It is filed as cell-based.
The target of assay [3] is T1, Histone deacetylase (Homo sapiens). The assay is described as follows: Inhibition of HDAC in human CAL-27 cells assessed as combination index at 0.35 uM measured in presence of 2 uM cDDP by MTT-based Chou-Talalay method. It is filed as cell-based.
Assay [4] shares this target. The assay is described as follows: Inhibition of HDAC in human CAL-27 cells assessed as combination index at 0.25 uM measured in presence of 2 uM cDDP by MTT-based Chou-Talalay method. It is filed as cell-based.
Assay [5] has the same target. The assay is described as follows: Inhibition of HDAC in human CAL-27 cells assessed as combination index at 0.2 uM measured in presence of 2 uM cDDP by MTT-based Chou-Talalay method. The class given is cell-based.
The target is the same in assay [6]. The assay is described as follows: Inhibition of HDAC in human CAL-27 cells assessed as combination index at 0.25 uM measured in presence of 5 uM cDDP by MTT-based Chou-Talalay method. The class given is cell-based.
For assay [7] the target is unchanged. The assay is described as follows: Inhibition of HDAC in human CAL-27 cells assessed as combination index at 0.35 uM measured in presence of 5 uM cDDP by MTT-based Chou-Talalay method. It is filed as cell-based.
Assay [8] has the same target. The assay is described as follows: Inhibition of HDAC in human CAL-27 cells assessed as combination index at 0.2 uM measured in presence of 10 uM cDDP by MTT-based Chou-Talalay method. The class given is cell-based.
For assay [9] the target is unchanged. The assay is described as follows: Inhibition of HDAC in human CAL-27 cells assessed as combination index at 0.3 uM measured in presence of 10 uM cDDP by MTT-based Chou-Talalay method. The class given is cell-based.
For assay [10] the target is unchanged. The assay is described as follows: Inhibition of HDAC in human Cal27CisR cells assessed as combination index at 0.1 uM measured in presence of 10 uM cDDP by MTT-based Chou-Talalay method. The class given is cell-based.
For assay [11] the target is unchanged. The assay is described as follows: Inhibition of HDAC in human Cal27CisR cells assessed as combination index at 0.2 uM measured in presence of 20 uM cDDP by MTT-based Chou-Talalay method. It is filed as cell-based.
Assay [12] has the same target. The assay is described as follows: Inhibition of HDAC in human Cal27CisR cells assessed as combination index at 0.4 uM measured in presence of 20 uM cDDP by MTT-based Chou-Talalay method. The class given is cell-based.
The target is the same in assay [13]. The assay is described as follows: Inhibition of HDAC in human Cal27CisR cells assessed as combination index at 0.2 uM measured in presence of 50 uM cDDP by MTT-based Chou-Talalay method. The class given is cell-based.
In the next assay the test system is HL-60. The assay is described as follows: Antiproliferative activity against human HL-60 cells assessed as reduction in cell viability for 72 hrs by Celltitre-Glo luminescent assay. It is filed as functional, cell-based. The settings on record: HL-60, 72 h.
For assay [14], the system named is CAL-27. The assay is described as follows: Induction of apoptosis in cisplatin resistant human CAL-27 cells assessed as caspase 3 activation at 2 uM pretreated for 24 hrs followed by cisplatin treatment and further incubated for 18 hrs by Caspase3/7 detection reagent based assay. It is filed as functional, cell-based. The settings on record: time 42.0 hrs.
For assay [15], the target named is T1, Histone deacetylase (Homo sapiens). The assay is described as follows: Inhibition of HDAC in human Cal27CisR cells assessed as potentiation of cisplatin-induced cytotoxicity by measuring fold reduction in cisplatin IC50 at 2 to 3 uM pretreated for 48 hrs followed by cisplatin addition and measured after 72 hrs by MTT assay relative to cisplatin alone. The class given is cell-based. The settings on record: dose 2-3 µM, time 120.0 hrs. Background: Tetrazolium dyes change colour on reduction, which living cells bring about.

The target is the same in assay [16]. The assay is described as follows: Inhibition of HDAC in human CAL-27 cells assessed as potentiation of cisplatin-induced cytotoxicity by measuring fold reduction in cisplatin IC50 at 2 to 3 uM pretreated for 48 hrs followed by cisplatin addition and measured after 72 hrs by MTT assay relative to cisplatin alone. It is filed as cell-based. The settings on record: dose 2-3 µM, time 120.0 hrs.

Assay [17] deals with Histone deacetylase. The assay is described as follows: Inhibition of HDAC in human Cal27CisR cells assessed as potentiation of cisplatin-induced cytotoxicity by measuring cisplatin IC50 at 2 to 3 uM pretreated for 48 hrs followed by cisplatin addition and measured after 72 hrs by MTT assay (reference value: 3.57 uM). The class given is cell-based.
Assay [18] concerns the target Histone deacetylase. The assay is described as follows: Inhibition of HDAC in human CAL-27 cells assessed as potentiation of cisplatin-induced cytotoxicity by measuring cisplatin IC50 at 2 to 3 uM pretreated for 48 hrs followed by cisplatin addition and measured after 72 hrs by MTT assay (reference value: 3.57 uM). The class given is cell-based.
In assay [19] the target is T1, Histone deacetylase (Homo sapiens). The assay is described as follows: Inhibition of HDAC in human CAL-27 cells assessed as combination index at 2 uM measured in presence of 5 uM cDDP by MTT-based Chou-Talalay method. The class given is cell-based.
For assay [20] the target is unchanged. The assay is described as follows: Inhibition of HDAC in human CAL-27 cells assessed as combination index at 0.5 uM measured in presence of 10 uM cDDP by MTT-based Chou-Talalay method. It is filed as cell-based.
Assay [21] has the same target. The assay is described as follows: Inhibition of HDAC in human CAL-27 cells assessed as combination index at 1 uM measured in presence of 10 uM cDDP by MTT-based Chou-Talalay method. The class given is cell-based.
The target is the same in assay [22]. The assay is described as follows: Inhibition of HDAC in human CAL-27 cells assessed as combination index at 1.5 uM measured in presence of 10 uM cDDP by MTT-based Chou-Talalay method. The class given is cell-based.
Assay [23] has the same target. The assay is described as follows: Inhibition of HDAC in human CAL-27 cells assessed as combination index at 2 uM measured in presence of 10 uM cDDP by MTT-based Chou-Talalay method. The class given is cell-based.
Assay [24] shares this target. The assay is described as follows: Inhibition of HDAC in human Cal27CisR cells assessed as combination index at 3 uM measured in presence of 10 uM cDDP by MTT-based Chou-Talalay method. The class given is cell-based.
For assay [25] the target is unchanged. The assay is described as follows: Inhibition of HDAC in human Cal27CisR cells assessed as combination index at 1 uM measured in presence of 20 uM cDDP by MTT-based Chou-Talalay method. The class given is cell-based.
The target is the same in assay [26]. The assay is described as follows: Inhibition of HDAC in human Cal27CisR cells assessed as combination index at 1.5 uM measured in presence of 20 uM cDDP by MTT-based Chou-Talalay method. The class given is cell-based.
For assay [27] the target is unchanged. The assay is described as follows: Inhibition of HDAC in human Cal27CisR cells assessed as combination index at 3 uM measured in presence of 20 uM cDDP by MTT-based Chou-Talalay method. It is filed as cell-based.
Assay [28] has the same target. The assay is described as follows: Inhibition of HDAC in human Cal27CisR cells assessed as combination index at 1 uM measured in presence of 50 uM cDDP by MTT-based Chou-Talalay method. It is filed as cell-based.
The target is the same in assay [29]. The assay is described as follows: Inhibition of HDAC in human Cal27CisR cells assessed as combination index at 2 uM measured in presence of 50 uM cDDP by MTT-based Chou-Talalay method. The class given is cell-based.
The target is the same in assay [30]. The assay is described as follows: Inhibition of HDAC in human Cal27CisR cells assessed as combination index at 3 uM measured in presence of 50 uM cDDP by MTT-based Chou-Talalay method. The class given is cell-based.

Each structure is given as a SMILES string. Active and inactive are the calls of the source. The calls are words filed in the database; no cut-off is given here.

As to `O=C(CCCCCONC(=O)c1cc2ccccc2[nH]1)NO`, the result with CAL-27 [1] was Active. The CI in [2] was 0.53; in assay [3], 0.21; in assay [4], 0.37; in assay [5] it was 0.63; in [6], 0.11; in assay [7] it was 0.05. The CI in assay [8] stood at 0.04; in assay [9] it was 0.02; in assay [10] it was 4.3; in [11] it was 0.43; in [12] it was 0.14; in [13] it was 0.47.
Take `O=C(CCCCCONC(=O)c1ccc2ccccc2n1)NO`: the result in the assay with CAL-27 [1] was Active. In addition, in the assay on HL-60, the IC50 worked out at 270 nM. The CI in assay [3] was 0.68; in assay [6] it was 0.94; in assay [7] it was 0.05; in assay [8] it was 0.04; in assay [9], 0.02; in assay [10] it was 2.62. The CI in assay [11] was determined as 0.55; in [12], 0.26; in assay [13], 0.5.
Turning to `O=C(CCCCCONC(=O)c1nccc2ccccc12)NO`, the result in the assay on CAL-27 [14] was Active. Besides, the IC50 in the assay with HL-60 worked out at 561 nM; on Histone deacetylase [17], 4840 nM; on Histone deacetylase [18], 1100 nM. The results for the Ratio IC50 in [15] and in [16] were 10 and 3.25, respectively. The CI in assay [19] worked out at 0.2; in assay [20], 0.58; in assay [21], 0.34; in assay [22], 0.21; in assay [23], 0.14; in [24], 0.24. Also, the CI in assay [25] worked out at 1.42; in assay [26], 0.55; in assay [27] it was 0.21; in assay [28], 0.47; in assay [29], 0.42; in [30] it was 0.39.

Usually IC50 stands for the midpoint of a concentration-inhibition curve.
